Source: US20120264827A1, “SULFANYLAMIDE DERIVATIVES, USES THEREOF AND COMPOSITIONS COMPRISING THEM” (YISSUM RESEARCH DEVELOPMENT COMPANY OF THE HEBREW …, priority 2009, published 2012)

Assays:
[1] = system: maximal electroshock seizure (MES); test: Maximal electroshock seizure test (MES), mice, intraperitoneal; format: in vivo; settings: ip;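 further: adult male CF no. 1 albino mice of 18–25 g, given compound intraperitoneally as a 0.5% methylcellulose suspension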
[2] = system: subcutaneous metrazol (pentylenetetrazol) seizure; test: Subcutaneous metrazol seizure threshold test (scMet), mice, intraperitoneal; format: in vivo; settings: ip;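 further: adult male CF no. 1 albino mice weighing 18-25 g, dosed intraperitoneally with compounds suspended in 0.5% methylcellulose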
[3] = 30 mg/kg, 0.5 h after administration
[4] = 30 mg/kg, 4 h after administration
[5] = 100 mg/kg, 0.5 h after administration
[6] = 100 mg/kg, 4 h after administration
[7] = 300 mg/kg, 0.5 h after administration
[8] = 300 mg/kg, 4 h after administration

In the case of `CCCC(C(=O)Nc1ccc(S(N)(=O)=O)cc1)C(C)(C)C` (stereo not drawn) [Compound 22, 2-tert-Butyl-N-(4-sulfamoyl-phenyl)-pentanamide], the “MES (number of animals protected/number of animals tested)” value [1, 3] is reported as 0/1, the “MES (number of animals protected/number of animals tested)” value [1, 4] is reported as 0/1 and the “MES (number of animals protected/number of animals tested)” value [1, 5] is reported as 0/3. For the same compound, the “MES (number of animals protected/number of animals tested)” value [1, 6] was 0/3, the “MES (number of animals protected/number of animals tested)” value [1, 7] was 0/1 and the “MES (number of animals protected/number of animals tested)” value [1, 8] was 0/1. The “scMet (number of animals protected/number of animals tested)” value [2, 3] was 0/1 0/1 0/1, the “scMet (number of animals protected/number of animals tested)” value [2, 4] was 0/1 0/1 0/1 and the “scMet (number of animals protected/number of animals tested)” value [2, 5] was 0/1 0/1 0/1. The “scMet (number of animals protected/number of animals tested)” value [2, 6] was 0/1 0/1 0/1, the “scMet (number of animals protected/number of animals tested)” value [2, 7] was 0/1 0/1 0/1 and the “scMet (number of animals protected/number of animals tested)” value [2, 8] was 0/1 0/1 0/1.
`CCC(C(=O)Nc1ccc(S(N)(=O)=O)cc1)C(C)(C)C` (stereo not drawn) [Compound 12, 2-Ethyl-3,3-dimethyl-N-(4-sulfamoyl-phenyl)-butyramide] was tested, and the “MES (number of animals protected/number of animals tested)” value [1, 3] was 0/1, the “MES (number of animals protected/number of animals tested)” value [1, 4] was 0/1 and the “MES (number of animals protected/number of animals tested)” value [1, 5] was 0/3. For the same compound, the “MES (number of animals protected/number of animals tested)” value [1, 6] was 1/3, the “MES (number of animals protected/number of animals tested)” value [1, 7] was 0/1 and the “MES (number of animals protected/number of animals tested)” value [1, 8] was 1/1. The “scMet (number of animals protected/number of animals tested)” value [2, 3] was 0/1 0/1 0/1, the “scMet (number of animals protected/number of animals tested)” value [2, 4] was 0/1 0/1 0/1 and the “scMet (number of animals protected/number of animals tested)” value [2, 5] was 0/1 0/1 0/1. For the same compound, the “scMet (number of animals protected/number of animals tested)” value [2, 6] was 0/1 0/1 0/1, the “scMet (number of animals protected/number of animals tested)” value [2, 7] was 0/1 0/1 0/1 and the “scMet (number of animals protected/number of animals tested)” value [2, 8] was 0/1 0/1 0/1.
`CCCC(CC)C(=O)Nc1ccc(S(N)(=O)=O)cc1` (stereo not drawn) [Compound 17, 2-Ethyl-N-(4-sulfamoyl-phenyl)-pentanamide] was tested, and the “MES (number of animals protected/number of animals tested)” value [1, 3] was 0/1, the “MES (number of animals protected/number of animals tested)” value [1, 4] was 0/1 and the “MES (number of animals protected/number of animals tested)” value [1, 5] was 0/3. The “MES (number of animals protected/number of animals tested)” value [1, 6] was 1/3, the “MES (number of animals protected/number of animals tested)” value [1, 7] was 0/1 and the “MES (number of animals protected/number of animals tested)” value [1, 8] was 1/1. The “scMet (number of animals protected/number of animals tested)” value [2, 3] was 0/1 0/1 0/1, the “scMet (number of animals protected/number of animals tested)” value [2, 4] was 0/1 0/1 0/1 and the “scMet (number of animals protected/number of animals tested)” value [2, 5] was 0/1 0/1 0/1. The “scMet (number of animals protected/number of animals tested)” value [2, 6] was 0/1 0/1 0/1, the “scMet (number of animals protected/number of animals tested)” value [2, 7] was 0/1 0/1 0/1 and the “scMet (number of animals protected/number of animals tested)” value [2, 8] was 0/1 0/1 0/1.
With `CC(C)C(C(=O)Nc1ccc(S(N)(=O)=O)cc1)C(C)(C)C` (stereo not drawn) [Compound 14, 2-Isopropyl-3,3-dimethyl-N-(4-sulfamoyl-phenyl)-butyramide] the “MES (number of animals protected/number of animals tested)” value [1, 3] was 0/1, the “MES (number of animals protected/number of animals tested)” value [1, 4] was 0/1 and the “MES (number of animals protected/number of animals tested)” value [1, 5] was 0/3. For the same compound, the “MES (number of animals protected/number of animals tested)” value [1, 6] was 3/3, the “MES (number of animals protected/number of animals tested)” value [1, 7] was 0/1 and the “MES (number of animals protected/number of animals tested)” value [1, 8] was 1/1. For the same compound, the “scMet (number of animals protected/number of animals tested)” value [2, 3] was 0/1 0/1 0/1, the “scMet (number of animals protected/number of animals tested)” value [2, 4] was 0/1 0/1 0/1 and the “scMet (number of animals protected/number of animals tested)” value [2, 5] was 0/1 0/1 0/1. The “scMet (number of animals protected/number of animals tested)” value [2, 6] was 0/1 0/1 0/1, the “scMet (number of animals protected/number of animals tested)” value [2, 7] was 0/1 0/1 0/1 and the “scMet (number of animals protected/number of animals tested)” value [2, 8] was 0/1 0/1 0/1.
In the case of `CCC(C)CC(=O)Nc1ccc(S(N)(=O)=O)cc1` (stereo not drawn) [Compound 24, 3-Methyl-N-(4-sulfamoyl-phenyl)-pentanamide], the “MES (number of animals protected/number of animals tested)” value [1, 3] is reported as 0/1, the “MES (number of animals protected/number of animals tested)” value [1, 4] is reported as 0/1 and the “MES (number of animals protected/number of animals tested)” value [1, 5] is reported as 0/3. The “MES (number of animals protected/number of animals tested)” value [1, 6] was 0/3, the “MES (number of animals protected/number of animals tested)” value [1, 7] was 0/1 and the “MES (number of animals protected/number of animals tested)” value [1, 8] was 0/1. The “scMet (number of animals protected/number of animals tested)” value [2, 3] was 0/1 0/1 0/1, the “scMet (number of animals protected/number of animals tested)” value [2, 4] was 0/1 0/1 0/1 and the “scMet (number of animals protected/number of animals tested)” value [2, 5] was 0/1 0/1 0/1. The “scMet (number of animals protected/number of animals tested)” value [2, 6] was 0/1 0/1 0/1, the “scMet (number of animals protected/number of animals tested)” value [2, 7] was 0/1 0/1 0/1 and the “scMet (number of animals protected/number of animals tested)” value [2, 8] was 0/1 0/1 0/1.
